As usually defined, the IC50 is the midpoint of a concentration-inhibition curve. By AUC is commonly meant the area under the concentration-time curve, a measure of exposure. High values mean more exposure, low ones less exposure. A word on the bioavailability: it is dose-corrected exposure relative to a reference, in per cent. What is called clearance is the volume of plasma or blood freed of the substance per unit of time. A lower clearance goes with a low capacity for elimination.

Data set [1] has as its target Serine/threonine-protein kinase PLK1 (Homo sapiens, UniProt P53350). The data set is described as follows: Inhibition of PLK1 expressed in baculovirus infected Trichoplusia ni cells.
In a further data set the test system is PC-3. The experiment in a line: Antiproliferative activity against human PC3 cells after 72 hrs. It is filed as functional, cell-based. The note with it: PC-3, 72 h.
The next data set relates to RKO. The data set is described as follows: Antiproliferative activity against human RKO cells after 72 hrs. It is filed as functional, cell-based.
The test system of the next data set is MCF7. The experiment in a line: Antiproliferative activity against human MCF7 cells after 72 hrs. It is filed as functional, cell-based. The note with it: MCF7, 72 h.
Data set [2] can be described thus: AUC in po dosed mouse. It is filed as ADME, organism-based. As to conditions: plasma.
The next data set has as its system NCI-H460. The data set is described as follows: Antiproliferative activity against human H460 cells after 72 hrs. It is filed as functional, cell-based. The note with it: NCI-H460, 72 h.
Data set [3] is described as follows: Oral bioavailability in mouse. The note with it: in vivo. It is filed as ADME, organism-based.
The nature of data set [4]: Clearance in mouse at 2.9 mg/kg, iv. It is filed as ADME, organism-based. Set-up: dose 2.9 mg/kg, route intravenous. The note with it: in vivo.
Data set [5] is described as follows: Volume of distribution at steady state in mouse at 2.9 mg/kg, iv. It is filed as ADME, organism-based. Set-up: dose 2.9 mg/kg, route intravenous. The note with it: in vivo, read-out: Vdss.
The subject of a further data set is HCT-116. The data set is described as follows: Antiproliferative activity against human HCT116 cells after 72 hrs. It is filed as functional, cell-based. As to conditions: HCT-116, 72 h.
A short description of data set [6]: Clearance in mouse at 5 mg/kg, iv. It is filed as ADME, organism-based. Set-up: dose 5 mg/kg, route intravenous. The note with it: in vivo.
The target of data set [7] is Serine/threonine-protein kinase PLK3 (Homo sapiens, UniProt Q9H4B4). The data set is described as follows: Inhibition of PLK3 expressed in baculovirus infected Trichoplusia ni cells.
Sequence of Serine/threonine-protein kinase PLK3 (Q9H4B4 whole entry): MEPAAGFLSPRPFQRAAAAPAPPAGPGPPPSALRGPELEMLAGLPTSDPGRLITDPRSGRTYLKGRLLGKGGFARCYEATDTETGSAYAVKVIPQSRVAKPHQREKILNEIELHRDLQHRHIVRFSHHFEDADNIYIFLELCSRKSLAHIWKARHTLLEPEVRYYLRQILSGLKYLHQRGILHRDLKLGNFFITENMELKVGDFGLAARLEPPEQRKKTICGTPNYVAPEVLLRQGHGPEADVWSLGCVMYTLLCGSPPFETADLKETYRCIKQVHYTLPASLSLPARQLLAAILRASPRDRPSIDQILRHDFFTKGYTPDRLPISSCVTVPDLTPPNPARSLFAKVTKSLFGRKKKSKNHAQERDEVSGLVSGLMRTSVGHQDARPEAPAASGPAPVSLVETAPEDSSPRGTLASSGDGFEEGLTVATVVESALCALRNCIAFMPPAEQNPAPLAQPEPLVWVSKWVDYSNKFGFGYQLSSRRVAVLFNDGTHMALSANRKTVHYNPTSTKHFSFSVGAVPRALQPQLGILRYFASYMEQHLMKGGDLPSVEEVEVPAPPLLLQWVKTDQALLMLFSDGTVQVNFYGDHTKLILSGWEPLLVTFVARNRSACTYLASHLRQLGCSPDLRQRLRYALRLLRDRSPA
Data set [8] in a line: Volume of distribution at steady state in mouse at 5 mg/kg, iv. It is filed as ADME, organism-based. Set-up: dose 5 mg/kg, route intravenous. The note with it: in vivo, read-out: Vdss.

Sequence of Serine/threonine-protein kinase PLK1 (P53350 whole entry): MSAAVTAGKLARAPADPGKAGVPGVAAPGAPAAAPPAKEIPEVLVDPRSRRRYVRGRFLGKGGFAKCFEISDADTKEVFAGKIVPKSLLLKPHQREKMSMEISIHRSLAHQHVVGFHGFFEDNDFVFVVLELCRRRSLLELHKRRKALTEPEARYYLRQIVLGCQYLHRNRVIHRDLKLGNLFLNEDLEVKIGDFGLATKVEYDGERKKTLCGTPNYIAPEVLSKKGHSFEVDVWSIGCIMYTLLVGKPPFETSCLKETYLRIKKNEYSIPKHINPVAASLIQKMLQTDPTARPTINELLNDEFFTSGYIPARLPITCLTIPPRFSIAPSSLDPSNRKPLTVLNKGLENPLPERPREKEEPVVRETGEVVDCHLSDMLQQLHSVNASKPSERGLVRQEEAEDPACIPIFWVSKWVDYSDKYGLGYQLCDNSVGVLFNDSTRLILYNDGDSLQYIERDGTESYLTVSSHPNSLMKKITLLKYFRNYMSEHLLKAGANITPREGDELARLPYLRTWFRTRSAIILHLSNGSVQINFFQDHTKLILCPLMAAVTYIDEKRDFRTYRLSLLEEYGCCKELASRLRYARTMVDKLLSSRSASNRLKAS

On to `Cc1nc(-c2ccccc2)n2nc(NCc3ccccc3)ncc12`, for which the IC50 in data set [1] is 1.5 µM. This lies in the single-digit micromolar range.

Regarding `Cc1nc(-c2ccccc2)n2nc(NC3CCCCC3)ncc12`, the IC50 in [1] is above 10 µM.

Consider `COc1cc(Nc2ncc3c(C)nc(-c4ccc(C(F)(F)F)cc4)n3n2)cc(OC)c1OC`, for which the half-inhibitory concentration (IC50) in [1] worked out at 1.06 µM.

Regarding `COc1cc(Nc2ncc3c(C)nc(-c4cccc(C(F)(F)F)c4)n3n2)cc(OC)c1OC` [GW837331X], the IC50 is 7.8 µM in the data set with PC-3; 3.2 µM in the data set with RKO; 4.8 µM in the data set on MCF7; 5.4 µM with NCI-H460; 3.9 µM in the data set with HCT-116. For the same molecule, the AUC in [2] was 0.264 µg·h/mL. Moreover, the bioavailability in [3] is 18%. For the same molecule, the clearance in [4] is 4.86 L/h/kg. In data set [5], the Vd was 2.3 L/kg.

Take `Cc1nc(-c2ccccc2)n2nc(Nc3ccc([N+](=O)[O-])cc3)ncc12`: the IC50 in data set [1] came to 2.81 µM.

In the case of `Cc1nc(-c2ccccc2)n2nc(Nc3cccc(C(F)(F)F)c3)ncc12`, the IC50 in [1] was above 10 µM.

In the case of `COc1ccccc1-c1nc(C)c2cnc(Nc3cc(OC)c(OC)c(OC)c3)nn12`, the IC50 in data set [1] stood at 5.66 µM. This counts as single-digit micromolar.

The molecule `Cc1nc(-c2ccccc2)n2nc(NCCc3ccncc3)ncc12` registered an IC50 in [1] above 10 µM.

`COc1ccc(Nc2ncc3c(C)nc(-c4ccccc4)n3n2)cc1`: the IC50 in data set [1] is 0.68 µM.

`COc1cc(Nc2ncc3c(C)nc(-c4ccc(F)cc4)n3n2)cc(OC)c1OC`: half-maximal inhibition in [1] (IC50) required 0.08 µM.

Molecule `COc1cccc(Nc2ncc3c(C)nc(-c4ccccc4)n3n2)c1` gave an IC50 in [1] of 0.3 µM.

Take `COc1ccc(Nc2ncc3c(C)nc(-c4ccccc4)n3n2)cc1OC`: the IC50 in [1] was 0.09 µM.

In turn, `Cc1nc(-c2ccccc2)n2nc(Nc3ccc(S(N)(=O)=O)cc3)ncc12` yielded an IC50 in data set [1] of 2.74 µM. Against the preceding molecule, the IC50 is about 30-fold higher.

In turn, `Cc1nc(-c2ccccc2)n2nc(Nc3ccccc3)ncc12` came in with an IC50 in data set [1] of 1.2 µM.

As for `Cc1nc(-c2ccccc2)n2nc(Nc3ccc(OCCN(C)C)cc3)ncc12`, the IC50 in [1] worked out at 0.38 µM.

As for `COc1cc(Nc2ncc3c(C)nc(-c4ccccc4[N+](=O)[O-])n3n2)cc(OC)c1OC`, the IC50 in data set [1] is 1.98 µM. Against the preceding molecule, the IC50 is about 5.2-fold higher.

Consider `COc1cc(Nc2ncc3c(C)nc(-c4ccccc4)n3n2)cc(OC)c1OC`, for which the IC50 stood at 12 µM in the data set with PC-3; 3.7 µM in the data set with RKO; 5.2 µM in the data set on MCF7; 6.5 µM in the data set with NCI-H460; 0.09 µM in [7]; 5.3 µM in the data set on HCT-116. This molecule returned a clearance in data set [6] of 3.18 L/h/kg. Also, the AUC in [2] was determined as 0.301 µg·h/mL. Further, the bioavailability in [3] came out at 10%. The Vd in data set [8] was 1.6 L/kg.

Consider `COc1cc(Nc2ncc3c(C)nc(-c4ccccc4Br)n3n2)cc(OC)c1OC`, for which the midpoint of inhibition in data set [1], the IC50, lay at 2.67 µM.

As to `COc1cc(Nc2ncc3c(C)nc(-c4cccc(Br)c4)n3n2)cc(OC)c1OC`, the IC50 stood at 26 µM in the data set on PC-3; 7.6 µM in the data set on RKO; 11 µM in the data set with MCF7; 5.8 µM in the data set with NCI-H460; 0.07 µM in [1]; 7.8 µM in the data set on HCT-116.

In the case of `Cc1nc(-c2ccccc2)n2nc(N)ncc12`, the IC50 in data set [1] was above 10 µM.

`Cc1nc(-c2ccccc2)n2nc(NCCCN3CCOCC3)ncc12` [GW874091X]: the IC50 in data set [1] is above 10 µM.

Values taken from ChEMBL document CHEMBL1152258, “Imidazo[5,1-f][1,2,4]triazin-2-amines as novel inhibitors of polo-like kinase 1” (Bioorg Med Chem Lett, 2008).
